Consider two molecules from patent publication US11110105B2, “Compounds, composition and uses thereof for treating cancer” (INSTITUT GUSTAVE ROUSSY, priority 2017, dated 2021).

Series [1] relates to splicing of the Globin-SL8-intron gene product in B16F10 cells. The series can be described thus: qRT-PCR of unspliced/spliced globin-SL8-intron RNA, B16F10. In kind it is cell-based, mouse. The settings on record: 15 μM isoginkgetin, 35 μM IP2 or 35 μM M2P2, 48 hours. How it is done:
RNA was extracted and qRT-PCR was performed with primers amplifying the unspliced (intron) and the spliced (exon) globin-SL8-intron RNA. Data are given as mean ±SEM of the ratio of 2^−ΔΔCt intron and 2^−ΔΔCt exon of at least three independent experiments. […] Data are express as mean ±SEM of the percentage of viable cells compared to the control condition of at least three independent experiments. *P<0.05, **P<0.01, ***P<0.001 (unpaired student t test).
In addition, it has been shown that cancer cells can acquire deficiencies in the splicing machinery that benefit their growth, for example by preventing the expression of tumor suppressor genes.
Background: In qPCR the cycle at which signal appears reflects the starting amount.

For series [2], the system named is mouse melanoma cell line B16F10. As to the kind of experiment: B3Z SL8-specific T-cell activation assay, B16F10. The series is classed as cell-based. The settings on record: B16F10, Globin-intron-SL8; 15 μM or 35 μM. How it is done:
B3Z SL8-specific T-cell activation after co-culture with (A) human melanoma A375, human lung carcinoma A549 or normal human lung fibroblast MRC5 cell lines, all transiently expressing the intron-derived SL8 peptide and the H2-K^b molecules and treated upstream with 2,5 μM or 6,25 μM isoginkgetin for 18 hours; or with (B) mouse sarcoma MCA205 or mouse melanoma B16F10 cell lines both transiently expressing the intron-derived SL8 peptide and treated upstream with 6,25 μM, 15 μM or 25 μM isoginkgetin for 18 hours. […]
Data are given as mean ±SEM. *P<0.05, **P<0.01, ***P<0.001 (unpaired student t test). […] Tumor size was assessed every 3 to 4 days until reaching the established ethical endpoints. […]
MCA205 and B16F10 mouse cell lines are transfected with the plasmid YFP-Globin-SL8-intron or with the PCDNA3 empty plasmid (negative control) with the transfection reagent jetPRIME (Ozyme) or GeneJuice (Millipore) respectively according to each manufacturer protocol. […] Finally, the β-galactosidase activity is measured using the FLUOstar OPTIMA (BMG LABTECH Gmbh, Offenburg, Germany). Results are expressed as mean ±SEM. *P<0.05, **P<0.01, ***P<0.001 (unpaired student t test).

Another series deals with B16F10 WT tumors. As to the kind of experiment: Tumor challenge, B16F10 WT in immunodeficient Nu/Nu nude mice. The series is classed as in vivo, mouse. The conditions noted are these: 18 mg/kg intraperitoneally, days 5, 10 and 15. How it is done: (A) Experimental settings. Growth of (B) sarcoma MCA205 or (C) melanoma B16F10 cells that both stably express the globin-SL8-intron construct or (D) MCA205 Wild Type (WT) or (E) B16F10 WT cells that were subcutaneously inoculated on the flank of immunocompetent C57BL/6 mice injected intraperitoneally with 12 mg/kg or 18 mg/kg of isoginkgetin at days 5, 10 and 15 after inoculation. Tumor size was assessed every 3 to 4 days until reaching the established ethical endpoints. Each line represents the tumor size in area (mm^2) of 6 mice in each group. Size in area (mm^2) of (F) MCA205 globin-SL8-intron, (G) B16F10 globin-SL8-intron, (H) MCA205 WT or (I) B16F10 WT tumors subcutaneously inoculated on the flank of immunodeficient Nu/Nu Nude mice injected intraperitoneally with 18 mg/kg of isoginkgetin at days 5, 10 and 15 after inoculation. Data are presented at the day before the endpoints are reached.
Each line represents the tumor size in area (mm^2) of at least 6 mice in each group. The C right panel represents the tumor size at day 27. […]
Inventors then assessed the requirement of the immune response for isoginkgetin to reduce tumor growth Immunodeficient Nu/Nu nude mice were inoculated subcutaneously with either MCA205 or B16F10 cells that stably express the Globin-intron-SL8 or WT, and were treated with the same settings as previously described (FIG. 9A). […]

Series [3] is described as follows: MTT viability, mouse cell lines (text summary of table 2). In kind it is cell-based. The settings on record: MCA205 sarcoma and B16F10 melanoma cells, MCA205 and B16F10, 6.25-25 μM, read-out: cell viability at efficient doses. How it is done: In parallel, the same experiment was performed on the mouse melanoma B16F10 and sarcoma MCA205 cell lines that were transiently expressing the Globin-SL8-intron construct. […] Efficient doses lead to cell viability over 50% in these cell lines (table 2).
MTT assay on MCA205 and B16F10 cell lines treated with 6.25 μM, 15 μM or 25 μM of isoginkgetin. Dare are given as the mean of the percentage of cell viability ±SEM from at least three independent experiments.

Entries after “also recorded” stand apart in the source; their conditions may differ. Some results are limits rather than exact numbers.

For `COc1ccc(-c2cc(=O)c3c(OC)cc(OP(=O)([O-])[O-])c(-c4cc(-c5cc(=O)c6c(OC)cc(OP(=O)([O-])[O-])cc6o5)ccc4OC)c3o2)cc1.[Na+].[Na+].[Na+].[Na+]` [IM2P2], the “splicing of Globin-SL8-intron RNA (ratio unspliced/spliced, qRT-PCR)” value in series [1] is given as “does not impact splicing; also recorded: no impact”. For the same molecule, the “intron-SL8-derived antigen presentation (B3Z activation)” value in series [2] is “does not impact it”.
As a reminder, the viability is a per cent measure of how many cells are alive, often set against a control. On to `COc1ccc(-c2cc(=O)c3c(O)cc(O)c(-c4cc(-c5cc(=O)c6c(O)cc(O)cc6o5)ccc4OC)c3o2)cc1` [Isoginkgetin, isoginkgetin], for which the tumor growth entry in the series with B16F10 WT tumors is on record as “No effect”. The viability in series [3] was above 50%.
